Read-outs that look alike come from different tables or passages of the source.
Key:
[1] = target: GDP-bound KRAS protein (aa 1-169), containing both G12C and C118A amino acid substitutions (Homo sapiens (Human), UniProt P01116, C118A/G12C); test: Coupled Nucleotide Exchange Assay; type: biochemical
Description: For compounds in Table 9, the following assay conditions were employed:
Coupled Nucleotide Exchange Assay:
The assay plates were then read on a PerkinElmer EnVision Multilabel Reader, using AlphaScreen® technology, and data were analyzed using a 4-parameter logistic model to calculate IC50 values.

[2] = system: Phosphorylation of ERK1/2 in MIA PaCa-2 cells; test: Phospho-ERK1/2 MSD Assay; type: cell-based; conditions: MiaPaCa-2 cells
[3] = system: Phosphorylation of ERK1/2 in A549 cells; test: Phospho-ERK1/2 MSD Assay (A549); type: cell-based
[4] = read-out: Coupled Exchange IC50 (2 h), 2 h compound pre-incubation
[5] = Homo sapiens, MIA PaCa-2, read-out: pERK IC50 (4 h), 4 h compound treatment
[6] = Homo sapiens, read-out: pERK IC50 (4 h), 4 h compound treatment
[7] = read-out: Coupled Exchange IC50 (20 h), 20 h compound pre-incubation
[8] = Homo sapiens, MIA PaCa-2, 4 h, read-out: pERK IC50 (4 h, MiaPaCa-2), 4 h compound treatment
[9] = Homo sapiens, A549, 4 h, read-out: pERK IC50 (4 h, A549), 4 h compound treatment
[10] = read-out: Coupled Exchange IC50 (5 min), 5 min compound pre-incubation

GDP-bound KRAS protein (aa 1-169), containing both G12C and C118A amino acid substitutions, sequence (P01116 other isoform, or with tags, fused parts or gaps G12C/C118A): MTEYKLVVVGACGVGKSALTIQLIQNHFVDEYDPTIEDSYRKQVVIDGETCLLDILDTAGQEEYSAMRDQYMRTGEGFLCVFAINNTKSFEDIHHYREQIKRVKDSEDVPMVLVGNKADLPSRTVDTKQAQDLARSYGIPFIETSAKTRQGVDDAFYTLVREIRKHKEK

Row | SMILES | IC50 [1, 4] | IC50 [2, 5] | IC50 [3, 6] | IC50 [1, 7] | IC50 [2, 8] | IC50 [3, 9] | IC50 [1, 10] | IC50 ([2]; read-out: pERK IC50 (4 h, MiaPaCa-2), 4 h compound treatment) | IC50 ([3]; read-out: pERK IC50 (4 h, A549), 4 h compound treatment)
1 | C=CC(=O)N1CC(NC(=O)Cn2cc(-c3cccnc3OC(C)C)c3cc(Br)ccc32)C1 [Example 105] | 6.45 µM | 22 µM | 11.3 µM |  |  |  |  |  | 
2 | C=CC(=O)N1CC(N(C)C(=O)Cn2cc(C(=O)N3CCc4c(cccc4OC)C3)c3cc(Br)ccc32)C1 [Example 107] | 0.59 µM |  |  | 0.18 µM | 23.1 µM | > 100 µM |  |  | 
3 | C=CC(=O)N1CC(NC(=O)Cn2cc(-c3cccc4ccccc34)c3cc(Br)cc(C)c32)C1 [Example 110] | 4.39 µM | 24.9 µM | 42.1 µM | 1.2 µM |  |  |  |  | 
4 | C=CC(=O)N1CC(NC(=O)Cn2c(C(=O)OC)c(I)c3cc(Br)ccc32)C1 [Example 111] | 1.98 µM | 25.4 µM | > 100 µM | 0.35 µM |  |  |  |  | 
5 | C=CC(=O)N1CC(NC(=O)Cn2cc(-c3ccccc3-c3ccccc3)c3cc(Cl)ccc32)C1 [Example 112] | 2.36 µM | 25.9 µM | > 100 µM | 0.71 µM |  |  | 3.95 µM |  | 
6 | C=CC(=O)N1CC(NC(=O)Cn2c(C)c(-c3ccccc3OC(C)C)c3cc(Cl)ccc32)C1 [Example 113] | 0.9 µM | 26.2 µM | > 100 µM |  |  |  |  |  | 
7 | C=CC(=O)N1CC(NC(=O)Cn2c(C)c(-c3cccnc3OC(C)C)c3cc(Br)ccc32)C1 [Example 115] | 2.78 µM | 28.1 µM | > 100 µM |  |  |  |  |  | 
8 | C=CC(=O)N1CC(NC(=O)Cn2c3ccccc3c3c(Br)cccc32)C1 [Example 117] | 2.05 µM | 29.6 µM | > 100 µM | 0.43 µM |  |  |  |  | 
9 | C=CC(=O)N1CC(NC(=O)Cn2cc(-c3ccccc3C(C)C)c3cc(Br)cc(C)c32)C1 [Example 119] | 1.71 µM | 30.6 µM | > 100 µM | 0.39 µM |  |  |  |  | 
10 | C=CC(=O)N1CC(NC(=O)Cn2c(C)c(-c3ccccc3C)c3cc(Cl)ccc32)C1 [Example 121] | 1.57 µM | 31.2 µM | > 100 µM | 0.42 µM |  |  | 12.4 µM |  | 
11 | C=CC(=O)N1CC(NC(=O)Cn2cc(C(=O)N3CCc4ccc(C)cc4C3)c3cc(Br)ccc32)C1 [Example 122] | 0.69 µM |  |  | 0.17 µM | 31.4 µM | > 100 µM |  |  | 
12 | C=CC(=O)N1CC(NC(=O)Cn2c(C)c(-c3ccccc3OC)c3cc(Cl)ccc32)C1 [Example 125] | 2.75 µM | 33.6 µM | > 100 µM |  |  |  |  |  | 
13 | C=CC(=O)N1CC(NC(=O)Cn2cc(I)c3cc([N+](=O)[O-])ccc32)C1 [Example 128] | 7.24 µM | 35.6 µM | > 100 µM | 1.18 µM |  |  | > 250 µM |  | 
14 | C=CC(=O)N1CC(NC(=O)Cn2cc(-c3c(C)ccc4cn[nH]c34)c3cc(Br)ccc32)C1 [Example 130] | 4.49 µM | 37 µM | 50.1 µM | 1.02 µM |  |  |  |  | 
15 | C=CC(=O)N1CC(NC(=O)C(C)(C)n2c(C)c(C(=O)N3CCc4c(cccc4OC)C3)c3cc(Cl)ccc32)C1 [Example 131] | 5.54 µM | 37 µM | 50.6 µM | 1.04 µM |  |  |  |  | 
16 | C=CC(=O)N1CC(NC(=O)Cn2cc(C3CC3)c3cc(Br)ccc32)C1 [Example 132] | 9.52 µM | 37.9 µM | > 100 µM | 1.71 µM |  |  |  |  | 
17 | C=CC(=O)N1CC(NC(=O)Cn2c3c(c4cc(Br)ccc42)CC(c2ccccc2)CC3)C1 (stereo not shown) [Example 133] | 7.06 µM | 37.9 µM | > 100 µM | 1.33 µM |  |  |  |  | 
18 | C=CC(=O)N1CC(NC(=O)Cn2c3c(c4cc([N+](=O)[O-])ccc42)CCCCC3)C1 [Example 135] | 4.25 µM |  |  | 0.63 µM |  |  |  | 38.7 µM | > 100 µM
19 | C=CC(=O)N1CC(NC(=O)Cn2cc(CNCc3ccccc3)c3cc(Br)ccc32)C1 [Example 136] | 9.85 µM | 39.6 µM | 36.6 µM | 1.91 µM |  |  |  |  | 
20 | C=CC(=O)N1CC(NC(=O)Cn2cc(-c3ccc(F)cc3F)c3cc(Br)ccc32)C1 [Example 137] | 6.9 µM | 40.4 µM | 16.5 µM | 1.13 µM |  |  |  |  | 
21 | C=CC(=O)N1CC(NC(=O)Cn2cc(I)c3cc(Cl)ccc32)C1 [Example 139] | 4.15 µM | 40.6 µM | > 100 µM | 0.52 µM |  |  | > 250 µM |  | 
22 | C=CC(=O)N1CC(NC(=O)Cn2c3c(c4cc(Br)ccc42)CN(C(=O)OCc2ccccc2)CC3)C1 [Example 141] | 7.25 µM | 42.4 µM | 19.3 µM | 1.51 µM |  |  |  |  | 
